{
  "source": "patent US20250388572A1",
  "about": "“USE OF HPK1 INHIBITOR IN PREVENTION AND/OR TREATMENT OF HUMAN PATHOGEN INFECTION” (priority 2022, published 2025)",
  "key": {"in vivo [1]": {"assay": "in vivo", "conditions": "male, cynomolgus monkey", "protocol": "Three male Cynomolgus macaques were administrated a single dose via intravenous injection (iv, 1 mg/kg, n=3), followed by oral administration (po, 10 mg/kg, n=3) after washing out for one week. Intravenous injection was performed by formulating the compounds into 1.0 mg/mL solutions using water or 10% DMSO/30% PEG400/water and administering it at a volume of 1 mL/kg. Oral administration was performed by formulating the compounds into 2.0 mg/mL solutions or suspensions using water or 0.5% methylcellulose/1.7 meq 1N hydrochloric acid and administering it at a volume of 5 mL/kg.\nThe pharmacokinetic parameters of the compounds were calculated using the non-compartmental model."}, "SARS-Cov-2 virus": {"system": "SARS-Cov-2 virus", "assay": "Pharmacodynamic evaluation for Covid 19 in hamsters", "type": "in vivo, Syrian golden hamsters", "protocol": "A total of 20 wild-type Syrian golden hamsters, aged 6-8 weeks, with half male and half female, were randomly divided into two groups: control group (n=4), and therapy group consisting of 5 mg/kg and 20 mg/kg groups, with 8 mice per group. Starting from day 0 (DO), the hamsters in the therapy group were given A2 orally at a total daily dose of 5 mg/kg or 20 mg/kg, and the control group was given an equal amount of blank drug orally daily. Meanwhile, on day 0, all hamsters were anesthetized and then inoculated intranasally with 100 uL of 1.375×10^6 PFU/mL SARS-Cov-2 virus. Clinical manifestations and body weight were monitored daily. At the end of the study, tissues (e.g., lungs) were collected and weighed, and virus RNA and infectious virus were then quantified."}, "[2]": {"conditions": "mouse, microsomes, 1 h, 10 µM", "protocol": "(§1) The procedure for identifying microsomal metabolites is as follows:\n(§2) The compounds (test compounds and their numbers are shown below, among which compounds A1 and B1 are prepared by referring to the relevant method disclosed in CN110396087A) were weighed and dissolved into dimethyl sulfoxide to prepare a 20 mM solution. The compound stock solution was diluted with 50% acetonitrile in water (v/v) to a concentration of 1.0 mM as a working solution. Liver microsomes (20 mg/mL) were diluted to 1.27 mg/mL with 50 mM dipotassium hydrogen phosphate buffer as a liver microsome working solution. Reduced coenzyme was weighed and dissolved in 3307 μL of phosphate buffer (50 mM) to 5.0 mM as a reduced coenzyme working solution. For T=60 minutes samples, 4 μL of test working solution (1.0 mM) was added, followed by 316 μL of liver microsome working solution (1.27 mg/mL), and finally, 80 μL of reduced coenzyme working solution was added to start the reaction. For T=0 minutes samples, 316 μL of liver microsome working solution (1.27 mg/mL) was added and then 80 μL of reduced coenzyme working solution was added to start the reaction, without test solution incubation. After incubation at 37° C. for 60 minutes, 1200 μL of stop solution was added to stop the enzyme reaction. For T=0 minute samples, 4 μL of test working solution (1.0 mM) was added. The sample plate was placed on a vortexer and vortexed at 600 rpm for 5 minutes. Then, the sample plate was centrifuged at 4000 rpm for 10 minutes. The supernatant was removed, mixed, and dried at room temperature with nitrogen. The residue dried with nitrogen was redissolved in 300 μL of 10% acetonitrile (0.1% FA) solvent and then centrifuged at 4000 rpm for 15 minutes. The supernatant was transferred to a detection plate for mass spectrometry. Mass spectrometry was performed using LC/Q-Exactive plus.\n(§3) 7-Ethoxycoumarin (10 μM) was selected as a positive control compound and operated in parallel with the compounds."}, "HSV virus": {"system": "HSV virus", "assay": "Pharmacodynamic evaluation for viral keratitis (HSV) in mice", "type": "in vivo, C57 mice", "conditions": "for corneal perforation: right eye, 2 weeks, control: 2 eyes perforated from day 5; for clinical score at the highest peak of the disease (day 5): control group above 6", "protocol": "Fifteen C57 mice (body weight: 22 g to 25 g), aged 8 weeks, were subjected to viral keratitis modeling in their right eyes. During the modeling process, a sterile 25G needle was used to make […]parallel scratches on the cornea of the right eye of all the animals. The scratch depth should be in the superficial zone and cannot penetrate the stroma layer. The scratches between each eyeball should be moderately uniform in depth and evenly distributed in density. Then, 4 μl of well-mixed HSV virus solution was dripped using a fiber syringe (titer: 2.0*10^6 PFU/ml) to complete the modeling. The day of modeling was set as DO. One day after modeling, the animals' right eyes were scored for viral keratitis, and 9 mice with uniform modeling were selected for the experiment. These 9 mice were randomly divided into 3 groups: control group, 1% A2 group and 0.2% A2 group, with 3 mice per group. According to the grouping, each animal's right eye surface was treated with the corresponding drugs, vehicle or 3024 eye drops with different concentrations, once every other day. On the day of administration, each eye was given 3 drops of 10 μl each time for 2 consecutive weeks. The degree of keratitis lesions was scored and analyzed on days 1, 3, 5, 7, 9, 11 and 14 after modeling.\nGrading (i.e., scoring) was performed based on the three criteria of corneal ulcer area, depth and shape, and the total score was recorded by adding.\n(1) Corneal ulcer area: Score 1=1% to 25%; Score 2=26% to 50%; Score 3=51% to 75%; and Score 4=76% to 100%.\n(2) Lesion depth: Score 1=mild corneal opacity with clear iris texture; Score 2=off-white superficial corneal opacity with visible iris texture; Score 3=off-white deep corneal opacity with unclear iris texture; and Score 4=off-white full-layer dense corneal opacity with unclear anterior chamber.\n(3) Corneal ulcer shape: Score 1=mild surface irregularity; Score 2=rough corneal surface with mild swelling; Score 3=severe edema with swelling descemet's membrane; and Score 4=corneal perforation or severe swelling descemet's membrane.\n(4) If there is hypopyon and/or hyphema, the score is increased by 1."}, "in vivo [3]": {"assay": "in vivo", "conditions": "male, Sprague Dawley, rat", "protocol": "Six male Sprague Dawley rats were administrated a single dose via intravenous injection (iv, n=3) and oral administration (po, n=3), respectively. Intravenous injection was performed by formulating the compounds into 0.25 mg/ml or 0.5 mg/mL solutions using 10% DMSO/30% PEG400/60% water and administering it at a volume of 2 mL/kg. Oral administration was performed by formulating the compounds into 0.6 mg/ml or 2.0 mg/mL homogeneous suspensions using 0.5% methylcellulose and administering it at a volume of 5 mL/kg.\nThe pharmacokinetic parameters of the compounds were calculated using the WinNolin non-compartmental model."}, "[4]": {"conditions": "cynomolgus macaque, microsomes, 1 h, 10 µM", "protocol": "as §1, §2, §3"}},
  "note": "Like-named read-outs stand apart in the source and are kept apart here.",
  "data": [
    {"smiles": "[2H]C([2H])([2H])N1CCC(n2cc(-c3cnc(N)c(OCc4cccc(C#CC(C)(C)O)c4)c3)cn2)CC1", "note": "[Compound A2, 4-(3-(((2-amino-5-(1-(1-trideuteriomethylpiperidin-4-yl)-1H-pyrazol-4-yl)pyridin-3-yl)oxy)methyl)phenyl)-2-methylbut-3-yn-2-ol]", "values": [
      {"measurement": "bioavailability", "setting": "in vivo [1]", "result": 18.8, "unit": "%"},
      {"measurement": "AUC(0-t)", "setting": "in vivo [1]; iv, 1 mg/kg", "result": 949, "unit": "ng·h/mL"},
      {"measurement": "clearance", "setting": "in vivo [1]; iv, 1 mg/kg", "result": 16.7, "unit": "mL/min/kg"},
      {"measurement": "AUC(0-t)", "setting": "in vivo [1]; po, 10 mg/kg", "result": 1760, "unit": "ng·h/mL"},
      {"measurement": "body weight of SARS-Cov-2 infected hamsters", "setting": "SARS-Cov-2 virus; 20 mg/kg daily, oral", "result": "gained weight at a much faster rate"},
      {"measurement": "lung weight normalized to total body weight", "setting": "SARS-Cov-2 virus; all A2 dose groups (5 mg/kg and 20 mg/kg daily, oral)", "result": "decreased"},
      {"measurement": "remaining percentage of the parent cores after 60 min", "setting": "[2]", "result": 55.0, "unit": "%"},
      {"measurement": "keratitis lesion scores vs model control group", "setting": "HSV virus; 0.2% eye drops for 2 weeks, P<0.01", "result": "statistically different"},
      {"measurement": "corneal perforation", "setting": "HSV virus; 0.2% eye drops", "result": "no corneal perforation"},
      {"measurement": "clinical score at the highest peak of the disease (day 5)", "setting": "HSV virus; 0.2% eye drops", "result": "less than 6"},
      {"measurement": "corneal neovascularization scoring", "setting": "HSV virus; 1% eye drops (suspension), control group above 1", "result": "below 0.5"},
      {"measurement": "keratitis lesion scores vs model control group", "setting": "HSV virus; 1.0% eye drops for 2 weeks, P<0.05", "result": "statistically different"},
      {"measurement": "corneal perforation", "setting": "HSV virus; 1% eye drops", "result": "no corneal perforation"},
      {"measurement": "clinical score at the highest peak of the disease (day 5)", "setting": "HSV virus; 1% eye drops", "result": "less than 6"},
      {"measurement": "AUC(0-t)", "setting": "in vivo [3]; iv, 1 mg/kg", "result": 247, "unit": "ng·h/mL"},
      {"measurement": "clearance", "setting": "in vivo [3]; iv, 1 mg/kg", "result": 71, "unit": "mL/min/kg"},
      {"measurement": "AUC(0-t)", "setting": "in vivo [3]; po, 10 mg/kg", "result": 572, "unit": "ng·h/mL"},
      {"measurement": "bioavailability", "setting": "in vivo [3]; po, 10 mg/kg", "result": 23.2, "unit": "%"},
      {"measurement": "remaining percentage of the parent cores after 60 min", "setting": "[4]", "result": 29.6, "unit": "%"}
    ]}
  ]
}
